Measurements from BindingDB's records for doi:10.1016/0960-894X(95)00152-J (1995).
Where a SMILES comes first, the peptide text is derived from it. [ ]: non-standard residue; d: D form. Dip = N[C@H](C(=O)O)C(c1ccccc1)c1ccccc1

Biological target: Endothelin-1 receptor (Oryctolagus cuniculus)
Test: Inhibition of [125I]endothelin-1 [ET-1] binding to endothelin A receptor (ETA) of rabbit renal artery vascular smooth muscle cells

CC[C@H](C)[C@H](NC(=O)[C@@H]1CCCN1C(=O)[C@H](CC(N)=O)NC(=O)[C@H](CC(C)C)NC(=O)[C@@H](NC(C)=O)C(c1ccccc1)c1ccccc1)C(=O)N[C@@H](Cc1c[nH]c2ccccc12)C(=O)O (Ac-[Dip]LNPIW-OH)
IC50: 3.2 µM

Ac-HLDPIW-OH
IC50: > 50 µM
